The results in this text go back to patent US12227500B2, “Substituted pyrrolo[2,3-b]pyridines for suppressing toxic endoplasmic reticulum stress” (THE TRUSTEES OF COLUMBIA UNIVERSITY IN THE CITY OF NEW YORK, priority 2018, dated 2025).

Experiment [1] has as its system human ES motor neurons carrying the ALS-causing SOD1^A4V mutation. As to the kind of experiment: cells. The class given is cell-based. As to conditions: 72 h, 72 h; for EC50 / Emax: CPA 33 μM; for viability at 1 µM: CPA (33 μM) + compound (1 μM), read-out: Motor Neuron Survival, % untreated; for Emax: read-out: Emax (MN survival % untreated). How it is done: Next, survival assays were performed with all the analogs at once to generate a low-variability dataset. All compounds were evaluated at concentrations ranging from 0.1-3.0 μM (five-point dilution) in three technical replicates and two biological replicates.

Another experiment has as its target T1, MLK1/MAP3K9 (Homo sapiens, UniProt P80192).
T1 construct: purchased Reaction Biology Corp
As to the kind of experiment: Radiolabeled ATP kinase assay (Reaction Biology Corp.), MLK1. The class given is biochemical. The settings on record: [Cmpd] 0.1 μM, 10 μM ATP. How it is done:
(§1) Meanwhile, the same analogs were analyzed in a radiolabeled ATP assay (10 μM ATP; Reaction Biology Corp.) to compare the extent to which they could inhibit the activity of HGK, MLK1, or MLK3 in a cell-free environment (Table S3 and S4).

Another experiment has as its target T2, MLK3/MAP3K11 (Homo sapiens, UniProt Q16584).
T2 construct: purchased Reaction Biology Corp
As to the kind of experiment: Radiolabeled ATP kinase assay (Reaction Biology Corp.), MLK3. The settings on record: [Cmpd] 0.1 μM; 10 μM ATP. The experiment is classed as biochemical. How it is done:
as §1

The target of another experiment is HGK/MAP4K4 (Homo sapiens, UniProt O95819). As to the kind of experiment: Radiolabeled ATP kinase assay (Reaction Biology Corp.), HGK. Also on record: purchased Reaction Biology Corp. The class given is biochemical. The settings on record: 10 μM ATP, read-out: % Enzyme Activity (relative to DMSO controls), HGK/MAP4K4, Data 1; for remaining activity at 0.025 µM: [Cmpd] 0.025 μM; for remaining activity at 0.1 µM: [Cmpd] 0.1 μM. The protocol: as §1

Setting [2] is: Homo sapiens, Neuron, read-out: EC50.
The mark [3] stands for this setting: read-out: % Enzyme Activity Remaining (relative to DMSO controls), MLK1/MAP3K9, Data 1.
[4] abbreviates: read-out: % Enzyme Activity Remaining (relative to DMSO controls), MLK1/MAP3K9, Data 2.

Usually EC50 stands for the concentration that produces a half-maximal response.

SMILES strings stand for the structures. Where two headings read alike, the source gives them in different places.

T2 sequence (Q16584 whole entry): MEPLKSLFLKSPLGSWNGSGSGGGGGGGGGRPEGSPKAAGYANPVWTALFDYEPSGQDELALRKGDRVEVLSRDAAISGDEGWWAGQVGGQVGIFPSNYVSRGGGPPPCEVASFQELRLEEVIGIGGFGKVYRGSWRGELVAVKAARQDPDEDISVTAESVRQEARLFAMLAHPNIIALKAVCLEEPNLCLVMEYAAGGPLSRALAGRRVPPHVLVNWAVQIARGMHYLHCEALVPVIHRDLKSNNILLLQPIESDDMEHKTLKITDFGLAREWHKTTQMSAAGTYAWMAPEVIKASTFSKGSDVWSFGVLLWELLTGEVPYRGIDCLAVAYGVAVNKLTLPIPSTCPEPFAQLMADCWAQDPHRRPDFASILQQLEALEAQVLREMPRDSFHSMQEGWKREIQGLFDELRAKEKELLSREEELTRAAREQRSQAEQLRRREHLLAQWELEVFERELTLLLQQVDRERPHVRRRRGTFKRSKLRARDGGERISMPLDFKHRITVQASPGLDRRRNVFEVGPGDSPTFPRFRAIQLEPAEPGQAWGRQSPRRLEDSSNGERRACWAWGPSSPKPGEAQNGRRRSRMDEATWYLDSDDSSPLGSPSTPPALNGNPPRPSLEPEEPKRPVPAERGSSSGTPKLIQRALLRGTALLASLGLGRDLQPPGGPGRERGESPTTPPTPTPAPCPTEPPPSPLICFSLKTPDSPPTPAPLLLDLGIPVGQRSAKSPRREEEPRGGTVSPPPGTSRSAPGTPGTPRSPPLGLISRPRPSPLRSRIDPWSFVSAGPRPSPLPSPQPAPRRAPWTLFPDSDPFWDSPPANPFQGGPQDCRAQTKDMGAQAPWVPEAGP
Chain of HGK/MAP4K4 (O95819 whole entry): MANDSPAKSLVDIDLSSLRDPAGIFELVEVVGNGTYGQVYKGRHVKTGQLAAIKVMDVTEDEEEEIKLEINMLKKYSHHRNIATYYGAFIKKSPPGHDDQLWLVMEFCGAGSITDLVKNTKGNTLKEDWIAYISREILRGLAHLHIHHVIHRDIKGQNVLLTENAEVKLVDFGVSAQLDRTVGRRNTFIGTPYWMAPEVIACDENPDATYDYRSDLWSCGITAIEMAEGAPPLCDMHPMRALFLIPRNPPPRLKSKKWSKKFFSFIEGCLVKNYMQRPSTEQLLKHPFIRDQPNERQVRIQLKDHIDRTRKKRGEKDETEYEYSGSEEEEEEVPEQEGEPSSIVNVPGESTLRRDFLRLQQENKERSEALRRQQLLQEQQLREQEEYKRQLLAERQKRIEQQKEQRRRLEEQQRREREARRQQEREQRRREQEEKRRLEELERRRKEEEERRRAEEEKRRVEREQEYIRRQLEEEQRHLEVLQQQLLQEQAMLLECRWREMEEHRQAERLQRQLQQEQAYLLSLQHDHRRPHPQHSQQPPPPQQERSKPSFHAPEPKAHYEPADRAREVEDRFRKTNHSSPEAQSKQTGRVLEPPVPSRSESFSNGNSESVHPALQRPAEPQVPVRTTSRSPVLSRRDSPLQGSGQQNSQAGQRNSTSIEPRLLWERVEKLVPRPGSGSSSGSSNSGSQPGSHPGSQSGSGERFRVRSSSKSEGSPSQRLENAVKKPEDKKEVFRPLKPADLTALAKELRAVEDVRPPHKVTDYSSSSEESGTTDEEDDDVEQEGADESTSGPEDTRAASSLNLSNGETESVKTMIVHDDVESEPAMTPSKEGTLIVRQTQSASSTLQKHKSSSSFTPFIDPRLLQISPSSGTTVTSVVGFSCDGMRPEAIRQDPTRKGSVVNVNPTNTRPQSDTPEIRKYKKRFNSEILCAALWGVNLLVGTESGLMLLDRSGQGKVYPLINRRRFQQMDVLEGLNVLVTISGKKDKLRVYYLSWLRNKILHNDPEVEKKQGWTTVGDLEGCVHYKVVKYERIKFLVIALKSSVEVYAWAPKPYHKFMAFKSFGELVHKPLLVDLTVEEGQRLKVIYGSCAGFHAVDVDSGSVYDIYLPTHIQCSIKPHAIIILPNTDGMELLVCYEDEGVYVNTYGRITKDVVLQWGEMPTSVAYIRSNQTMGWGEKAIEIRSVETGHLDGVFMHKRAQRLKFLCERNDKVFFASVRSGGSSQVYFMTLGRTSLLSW
T1 sequence (P80192 whole entry): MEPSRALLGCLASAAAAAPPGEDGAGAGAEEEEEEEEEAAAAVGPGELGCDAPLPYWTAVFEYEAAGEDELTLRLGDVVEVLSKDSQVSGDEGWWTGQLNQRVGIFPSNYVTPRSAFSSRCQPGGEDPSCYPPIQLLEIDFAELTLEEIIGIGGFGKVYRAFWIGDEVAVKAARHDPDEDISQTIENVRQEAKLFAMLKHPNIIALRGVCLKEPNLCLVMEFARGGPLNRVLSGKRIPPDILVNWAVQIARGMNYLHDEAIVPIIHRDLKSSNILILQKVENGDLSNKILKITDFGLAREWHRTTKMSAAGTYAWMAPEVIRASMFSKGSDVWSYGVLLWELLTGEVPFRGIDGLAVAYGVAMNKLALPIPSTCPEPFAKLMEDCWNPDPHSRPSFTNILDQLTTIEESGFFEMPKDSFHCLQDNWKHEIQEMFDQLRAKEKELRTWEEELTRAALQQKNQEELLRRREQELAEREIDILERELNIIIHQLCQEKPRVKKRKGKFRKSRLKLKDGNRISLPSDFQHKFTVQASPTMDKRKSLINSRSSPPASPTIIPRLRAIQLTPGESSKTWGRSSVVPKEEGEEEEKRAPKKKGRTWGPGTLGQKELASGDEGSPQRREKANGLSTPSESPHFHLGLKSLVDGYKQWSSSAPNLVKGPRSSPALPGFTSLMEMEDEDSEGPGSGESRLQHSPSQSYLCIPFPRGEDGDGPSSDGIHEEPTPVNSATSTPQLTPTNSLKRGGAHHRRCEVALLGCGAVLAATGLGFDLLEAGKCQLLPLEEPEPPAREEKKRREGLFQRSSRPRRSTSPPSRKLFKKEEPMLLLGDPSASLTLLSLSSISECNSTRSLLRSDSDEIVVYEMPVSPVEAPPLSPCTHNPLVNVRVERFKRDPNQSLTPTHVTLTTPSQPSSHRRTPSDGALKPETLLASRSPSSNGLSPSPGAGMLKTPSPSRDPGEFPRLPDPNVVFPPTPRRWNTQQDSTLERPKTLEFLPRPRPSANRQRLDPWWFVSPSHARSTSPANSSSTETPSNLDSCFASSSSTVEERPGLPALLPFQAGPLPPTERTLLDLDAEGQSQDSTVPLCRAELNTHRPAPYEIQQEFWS

With `CCOc1ccc(-c2c[nH]c3ncc(-c4ccc(CN5CCN(C)CC5)cc4)cc23)cn1` [Compound 7b, 3-(6-Ethoxypyridin-3-yl)-5-(4-((4-methylpiperazin-1-yl)methyl)phenyl)-1H-pyrrolo[2,3-b]pyridine], the EC50 in experiment [1] (setting [2]) came to 496 nM. Further, in experiment [1] (Homo sapiens, Neuron), the viability at 1 µM came to 52.3% and the Emax amounted to 52.3%. In addition, on MLK1/MAP3K9 (setting [3]), the remaining activity at 0.1 µM was 89.2%. Further, the remaining activity at 0.1 µM on MLK1/MAP3K9 (setting [4]) was 87.8%. Further, on MLK3/MAP3K11, the “% Enzyme Activity Remaining (relative to DMSO controls), MLK3/MAP3K11, Data 1” value came to 86.71% and the “% Enzyme Activity Remaining (relative to DMSO controls), MLK3/MAP3K11, Data 2” value is recorded as 86.95%. At HGK/MAP4K4, the remaining activity at 0.025 µM was found to be 77.6% and the remaining activity at 0.1 µM was 42.8%.
As to `CN1CCN(Cc2ccc(-c3cnc4[nH]cc(-c5ccc(N)cc5)c4c3)cc2)CC1` [Compound 7e, 4-(5-(4-((4-Methylpiperazin-1-yl)methyl)phenyl)-1H-pyrrolo[2,3-b]pyridin-3-yl)aniline], the concentration giving a half-maximal response (EC50) in experiment [1] (setting [2]) came out at 228 nM. Besides, in experiment [1] (Homo sapiens, Neuron), the viability at 1 µM was determined as 96.1% and the Emax stood at 111%. Further, the remaining activity at 0.1 µM on MLK1/MAP3K9 (setting [3]) is 51.7%. Moreover, on MLK1/MAP3K9 (setting [4]), the remaining activity at 0.1 µM turned out to be 54%. Also, on MLK3/MAP3K11, the “% Enzyme Activity Remaining (relative to DMSO controls), MLK3/MAP3K11, Data 1” value is on record as 51.43% and the “% Enzyme Activity Remaining (relative to DMSO controls), MLK3/MAP3K11, Data 2” value turned out to be 54.29%. At HGK/MAP4K4, the remaining activity at 0.025 µM was 24% and the remaining activity at 0.1 µM is 7.41%.
Consider `CNC(=O)Nc1cccc(-c2c[nH]c3ncc(-c4ccc(CN5CCN(C)CC5)cc4)cc23)c1` [Compound 7ak, 1-Methyl-3-(3-(5-(4-((4-methylpiperazin-1-yl)methyl)phenyl)-1H-pyrrolo[2,3-b]pyridin-3-yl)phenyl)urea], for which the half-maximal effective concentration (EC50) in experiment [1] (setting [2]) was found to be 650 nM. Besides, in experiment [1] (Homo sapiens, Neuron), the viability at 1 µM amounted to 78.5% and the Emax is 112%. Moreover, the remaining activity at 0.1 µM at MLK1/MAP3K9 (setting [3]) amounted to 34.2%. At MLK1/MAP3K9 (setting [4]), the remaining activity at 0.1 µM turned out to be 32.8%. At MLK3/MAP3K11, the “% Enzyme Activity Remaining (relative to DMSO controls), MLK3/MAP3K11, Data 1” value was 48.06% and the “% Enzyme Activity Remaining (relative to DMSO controls), MLK3/MAP3K11, Data 2” value was found to be 48.02%. Also, at HGK/MAP4K4, the remaining activity at 0.025 µM is 41.7% and the remaining activity at 0.1 µM is 14.2%.
Regarding `CN1CCN(Cc2ccc(-c3cnc4[nH]cc(-c5ccc(F)c(C(=O)NCc6ccco6)c5)c4c3)cc2)CC1` [Compound 7av, 2-Fluoro-N-(furan-2-ylmethyl)-5-(5-(4-((4-methylpiperazin-1-yl)methyl)phenyl)-1H-pyrrolo[2,3-b]pyridin-3-yl)benzamide], the 50% effective concentration (EC50) in experiment [1] (setting [2]) was found to be 1050 nM. In addition, in experiment [1] (Homo sapiens, Neuron), the viability at 1 µM was determined as 34.5% and the Emax was 53.5%. Besides, the remaining activity at 0.1 µM at MLK1/MAP3K9 (setting [3]) came to 86%. In addition, the remaining activity at 0.1 µM at MLK1/MAP3K9 (setting [4]) is 84.2%. Further, at MLK3/MAP3K11, the “% Enzyme Activity Remaining (relative to DMSO controls), MLK3/MAP3K11, Data 1” value was 84.24% and the “% Enzyme Activity Remaining (relative to DMSO controls), MLK3/MAP3K11, Data 2” value is reported as 86.99%. For the same compound, at HGK/MAP4K4, the remaining activity at 0.025 µM worked out at 88.8% and the remaining activity at 0.1 µM amounted to 51.2%.
For the compound `Cc1ccc(C)c(-c2c[nH]c3ncc(-c4ccc(CN5CCN(C)CC5)cc4)cc23)c1` [Compound 7af, 3-(2,5-Dimethylphenyl)-5-(4-((4-methylpiperazin-1-yl)methyl)phenyl)-1H-pyrrolo[2,3-b]pyridine], in experiment [1] (setting [2]), the 50% effective concentration (EC50) turned out to be 1340 nM. Further, in experiment [1] (Homo sapiens, Neuron), the viability at 1 µM came to 38.6% and the Emax is 67.5%. In addition, the remaining activity at 0.1 µM on MLK1/MAP3K9 (setting [3]) amounted to 92.6%. Moreover, the remaining activity at 0.1 µM on MLK1/MAP3K9 (setting [4]) stood at 90.6%. Moreover, on MLK3/MAP3K11, the “% Enzyme Activity Remaining (relative to DMSO controls), MLK3/MAP3K11, Data 1” value is listed as 75.32% and the “% Enzyme Activity Remaining (relative to DMSO controls), MLK3/MAP3K11, Data 2” value stood at 81.31%. At HGK/MAP4K4, the remaining activity at 0.025 µM turned out to be 69% and the remaining activity at 0.1 µM turned out to be 38.7%.
As for `CN1CCN(Cc2ccc(-c3cnc4[nH]cc(-c5cnn(C)c5)c4c3)cc2)CC1` [Compound 7s, 3-(1-Methyl-1H-pyrazol-4-yl)-5-(4-((4-methylpiperazin-1-yl)methyl)phenyl)-1H-pyrrolo[2,3-b]pyridine], in experiment [1] (setting [2]), the 50% effective concentration (EC50) worked out at 2190 nM. Also, in experiment [1] (Homo sapiens, Neuron), the viability at 1 µM is 42.9% and the Emax stood at 100%. Also, the remaining activity at 0.1 µM on MLK1/MAP3K9 (setting [3]) is 94.8%. For the same compound, the remaining activity at 0.1 µM on MLK1/MAP3K9 (setting [4]) amounted to 94.3%. Besides, on MLK3/MAP3K11, the “% Enzyme Activity Remaining (relative to DMSO controls), MLK3/MAP3K11, Data 1” value was determined as 90.97% and the “% Enzyme Activity Remaining (relative to DMSO controls), MLK3/MAP3K11, Data 2” value is reported as 90.45%. Moreover, at HGK/MAP4K4, the remaining activity at 0.025 µM turned out to be 77.8% and the remaining activity at 0.1 µM is 37%.
With `COCCNC(=O)Nc1cccc(-c2c[nH]c3ncc(-c4ccc(CN5CCN(C)CC5)cc4)cc23)c1` [Compound 7az, 1-(2-Methoxyethyl)-3-(3-(5-(4-((4-methylpiperazin-1-yl)methyl)phenyl)-1H-pyrrolo[2,3-b]pyridin-3-yl)phenyl)urea], in experiment [1] (setting [2]), the half-maximal effective concentration (EC50) came to 2990 nM. In experiment [1] (Homo sapiens, Neuron), the viability at 1 µM turned out to be 22.9% and the Emax amounted to 51.5%. The remaining activity at 0.1 µM on MLK1/MAP3K9 (setting [3]) turned out to be 79%. Also, on MLK1/MAP3K9 (setting [4]), the remaining activity at 0.1 µM was 78.5%. Further, at MLK3/MAP3K11, the “% Enzyme Activity Remaining (relative to DMSO controls), MLK3/MAP3K11, Data 1” value is reported as 79.28% and the “% Enzyme Activity Remaining (relative to DMSO controls), MLK3/MAP3K11, Data 2” value turned out to be 80.78%. Besides, on HGK/MAP4K4, the remaining activity at 0.025 µM was determined as 87.1% and the remaining activity at 0.1 µM amounted to 65%.
Turning to `CN1CCN(Cc2ccc(-c3cnc4[nH]cc(-c5ccc(OC(F)(F)F)cc5)c4c3)cc2)CC1` [Compound 7z, 5-(4-((4-Methylpiperazin-1-yl)methyl)phenyl)-3-(4-(trifluoromethoxy)phenyl)-1H-pyrrolo[2,3-b]pyridine], in experiment [1], the EC50 result is on record as “Ambiguous”. In experiment [1] (Homo sapiens, Neuron), the viability at 1 µM was determined as 11.2% and the Emax amounted to 12.8%. In addition, the remaining activity at 0.1 µM at MLK1/MAP3K9 (setting [3]) was found to be 98.6%. Also, the remaining activity at 0.1 µM on MLK1/MAP3K9 (setting [4]) worked out at 99.2%. In addition, on MLK3/MAP3K11, the “% Enzyme Activity Remaining (relative to DMSO controls), MLK3/MAP3K11, Data 1” value worked out at 93.59% and the “% Enzyme Activity Remaining (relative to DMSO controls), MLK3/MAP3K11, Data 2” value is given as 94.16%. Also, on HGK/MAP4K4, the remaining activity at 0.025 µM was 96.4% and the remaining activity at 0.1 µM was found to be 67.9%.
With `CN1CCN(Cc2ccc(-c3cnc4[nH]cc(-c5ccccc5)c4c3)cc2)CC1` [Compound 7ac, 5-(4-((4-Methylpiperazin-1-yl)methyl)phenyl)-3-phenyl-1H-pyrrolo[2,3-b]pyridine], the half-maximal effective concentration (EC50) in experiment [1] (setting [2]) amounted to 774 nM. Also, in experiment [1] (Homo sapiens, Neuron), the viability at 1 µM is 75.9% and the Emax turned out to be 110%. Moreover, on MLK1/MAP3K9 (setting [3]), the remaining activity at 0.1 µM is 60.8%. In addition, the remaining activity at 0.1 µM on MLK1/MAP3K9 (setting [4]) was 57.7%. Further, at MLK3/MAP3K11, the “% Enzyme Activity Remaining (relative to DMSO controls), MLK3/MAP3K11, Data 1” value amounted to 42.00% and the “% Enzyme Activity Remaining (relative to DMSO controls), MLK3/MAP3K11, Data 2” value was 43.30%. At HGK/MAP4K4, the remaining activity at 0.025 µM worked out at 31.9% and the remaining activity at 0.1 µM amounted to 6.69%.
Regarding `CN1CCN(Cc2ccc(-c3cnc4[nH]ccc4c3)cc2)CC1` [Compound 4, 5-(4-((4-Methylpiperazin-1-yl)methyl)phenyl)-1H-pyrrolo[2,3-b]pyridine], the EC50 entry in experiment [1] is on record as “Ambiguous”. In addition, in experiment [1] (Homo sapiens, Neuron), the viability at 1 µM stood at 10.3% and the Emax is 13.7%. The remaining activity at 0.1 µM at MLK1/MAP3K9 (setting [3]) turned out to be 95.9%. On MLK1/MAP3K9 (setting [4]), the remaining activity at 0.1 µM was 93.5%. Besides, on MLK3/MAP3K11, the “% Enzyme Activity Remaining (relative to DMSO controls), MLK3/MAP3K11, Data 1” value was determined as 91.95% and the “% Enzyme Activity Remaining (relative to DMSO controls), MLK3/MAP3K11, Data 2” value is listed as 94.97%. Further, at HGK/MAP4K4, the remaining activity at 0.025 µM is 101% and the remaining activity at 0.1 µM is 88.3%.
